Measurements reported in patent publication US8158593B2, “GPR17 modulators, method of screening and uses thereof” (Universita' degli Studi di Milano, priority 2004, dated 2012).

What was measured:
rat GPR17 = molecular target: T1, rat GPR17 (Rattus norvegicus, UniProt Q09QM4); test: [35S]GTPγS binding to membranes of 1321N1 cells expressing rat GPR17; type: biochemical; conditions: agonist; 1321N1 cells expressing rat GPR17
T1 construct: expressed in transfected cells; host or cells: 1321N1; pcDNA3.1
T1 sequence (Q09QM4 whole entry): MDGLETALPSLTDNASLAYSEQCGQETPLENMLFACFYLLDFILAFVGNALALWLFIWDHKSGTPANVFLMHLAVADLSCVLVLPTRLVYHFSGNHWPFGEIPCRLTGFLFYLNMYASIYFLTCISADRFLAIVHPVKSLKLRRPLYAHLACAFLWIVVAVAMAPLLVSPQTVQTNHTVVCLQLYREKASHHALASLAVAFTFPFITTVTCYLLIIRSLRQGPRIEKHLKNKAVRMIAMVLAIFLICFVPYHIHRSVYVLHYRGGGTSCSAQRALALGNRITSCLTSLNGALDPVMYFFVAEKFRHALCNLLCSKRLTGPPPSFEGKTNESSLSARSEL
Description: (§1) [^35S]GTPγS Binding Assay. 1321N1 cells, COS-7 and HEK-293 cells (control and transfected cells) were homogenized in 5 mM TRIS-HCl, 2 mM EDTA, pH 7.4 and centrifuged at 48000 g for 15 min at 4° C. The resulting pellets (plasma membranes) were washed in 50 mM TRIS-HCl, 10 mM MgCl2, pH 7.4 and stored at −80° C. until used. Measurement of nucleotide-stimulated [^35S]GTPγS binding to membranes of cells expressing the human or rat GPR17 receptor was performed as previously described^9-11.
To identify the endogenous ligand of GPR17, the cDNAs from human and rat GPR17 were cloned into the mammalian expression vector pcDNA3.1 and transfected in 1321N1, COS-7 and HEK-293 cells for functional characterization. GPR17 activation was assessed by testing the ability of exogenously-added ligands to increase [^35S]GTPγS binding to purified membranes obtained from transfected cells^9-11. […] The specificity of GPR17 responses were also challenged by assessing the ability of some purinergic and leukotriene receptor antagonists to counteract the increase of [^35S]GTPγS binding evoked by nucleotides and cys-LTs in 1321N1 cells expressing either the human or rat receptor. […] Because both P2Y^2,11,12 and CysLT receptors^3,13 may couple to G proteins of the Gi subfamily, to evaluate the involvement of this class of G-proteins, we preincubated 1321N1 cells expressing hGPR17 with pertussis toxin (PTX) which inactivates Gi proteins, prior to membrane preparation and [^35S]GTPγS binding.
Table 1. Potency of various ligands on [^35S]GTPγS binding to membranes obtaind from 1321N1 cells-transfected with human or rat GPR17. […] All data represent the mean of triplicate determinations from 4-9 independent experiments.

hGPR17 [1] = molecular target: T2, hGPR17 (Homo sapiens, UniProt Q13304); test: [35S]GTPγS binding, HEK-293 cells expressing hGPR17; type: biochemical; design: expressed in transfected cells; host or cells: HEK-293 (A4); pcDNA3.1; conditions: HEK-293 cells transfected with hGPR17
T2 sequence (Q13304 29-367): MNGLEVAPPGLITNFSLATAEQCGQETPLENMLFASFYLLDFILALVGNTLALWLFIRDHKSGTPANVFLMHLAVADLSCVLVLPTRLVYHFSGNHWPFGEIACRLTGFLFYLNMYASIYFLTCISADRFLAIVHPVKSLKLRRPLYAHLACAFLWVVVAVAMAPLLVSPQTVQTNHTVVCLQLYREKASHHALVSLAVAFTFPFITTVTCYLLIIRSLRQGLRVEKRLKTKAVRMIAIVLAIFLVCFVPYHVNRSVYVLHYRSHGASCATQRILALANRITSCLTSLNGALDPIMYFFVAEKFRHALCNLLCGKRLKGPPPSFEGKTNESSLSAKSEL
Description: as §1
To identify the endogenous ligand of GPR17, the cDNAs from human and rat GPR17 were cloned into the mammalian expression vector pcDNA3.1 and transfected in 1321N1, COS-7 and HEK-293 cells for functional characterization. GPR17 activation was assessed by testing the ability of exogenously-added ligands to increase [^35S]GTPγS binding to purified membranes obtained from transfected cells^9-11. […] The specificity of GPR17 responses were also challenged by assessing the ability of some purinergic and leukotriene receptor antagonists to counteract the increase of [^35S]GTPγS binding evoked by nucleotides and cys-LTs in 1321N1 cells expressing either the human or rat receptor. […]

hGPR17 [2] = molecular target: T2, hGPR17; test: Single cell calcium imaging in 1321N1 cells expressing hGPR17; type: cell-based; design: expressed in transfected cells; host or cells: 1321N1 (A1, A5), COS-7 (A3, A6), HEK-293 (A4); pcDNA3.1
Text: Polychrome IV (TILL Photonics, Germany) was used as light source. Fura-2 and EGFP fluorescence images were collected with a PCO Super […] (Axon Instruments, Forest City, Calif.) and analyzed with the Axon Imaging Workbench 2.2 software (Axon Instruments).

EC50 (rat GPR17): 4.6 ± 0.6 µM
response in [35S]GTPγS binding (hGPR17 [1]): induced responses
cells showing rise of [Ca2+]i (hGPR17 [2]): approximately 30%
Structure (SMILES): O=c1ccn([C@@H]2O[C@H](COP(=O)(O)OP(=O)(O)O)[C@@H](O)[C@H]2O)c(=O)[nH]1 [UDP]
